Experiments:
Format in all cases: in vivo, human
[1] = tested on: male subjects with T2DM; assay: Eight week single-blind treatment study; responder defined by composite score of glycemic-lowering efficacy (FPG, fructosamine, HbA1c); conditions: responder = composite % reduction 1(%ΔFPG)+2(%ΔFructosamine)+1.5(%ΔHbA1c) greater than 30%, 8 weeks
Description: The study described herein was relatively small-scale (75 male subjects with T2DM) and short-term (8 weeks of treatment). Serum and urine samples were obtained at pre-treatment baseline, and after 4 and 8 weeks of treatment with one of the following: placebo, rosiglitazone, metformin or glyburide. High information content nuclear magnetic resonance (NMR) and liquid chromatography/mass spectroscopy (LC/MS)-based metabolomic platforms, including polar metabolite and lipid profiling, were used to profile the serum and urine samples. A variety of multivariate analysis techniques were used to determine whether polar low molecular weight metabolites, lipids, or fatty acids, analyzed in readily accessible fluids can be used to predict drug responder status at week 8 based on their measurement at baseline or at week 4.
Male subjects aged 30 to 70 years with a documented history of stable T2DM for no more than 10 years duration were eligible for the study described herein if they had been previously treated with diet and exercise alone, monotherapy or low-dose combination therapy. Fasting plasma glucose (FPG) at screening could not exceed 225 mg/dL for subjects treated with diet and exercise alone or 180 mg/dL for subjects receiving monotherapy or low-dose combination therapy. HbA1c was required to be within 5.7 to 10.0% with the following conditions; subjects with HbA1c between 5.7 and 9% must have been diabetic for less than 5 years and treated with mono or low dose combination therapy and have a FBG of 125 to 180 mg/dL, and subjects with HbA1c between 9.1 and 10.0% must not have been treated with combination therapy. In addition, body mass index must have been within the range of 25 to 37.5 kg/m^2, for subjects aged […] years, or 25 to 35.0 kg/m^2 for subjects aged 56 to 70 years. […]
Originally, efficacy response was defined as a FPG decrease of greater than 30 mg/dl. […] Fructosamine, whose half-life is determined by that of albumin, provides a measure of integrated glucose over a period of 2-4 weeks. […]

[2] = tested on: urine citrate; assay: Urine citrate measured by NMR at week 0 and week 8 in rosiglitazone responders and non-responders; conditions: week 8 vs week 0
Method: FIGS. 4A-4C show the measure of selected biomarkers in urine or serum.
Male subjects aged 30 to 70 years with a documented history of stable T2DM for no more than 10 years duration were eligible for the study described herein if they had been previously treated with diet and exercise alone, monotherapy or low-dose combination therapy. Fasting plasma glucose (FPG) at screening could not exceed 225 mg/dL for subjects treated with diet and exercise alone or 180 mg/dL for subjects receiving monotherapy or low-dose combination therapy. […]
Serum and urine samples were analyzed using various metabolomic platforms and with traditional serum biomarker (“non-omic”) measurements. Both urine and serum were measured by nuclear magnetic resonance (NMR)-based metabolic profiling. Serum samples were also analyzed by liquid chromatograph (LC)/mass spectrometry (MS) for polar metabolites and lipids, and gas chromatograph (GC)-flame ionization for fatty acids (lipidomics). […]
Citrate may play a critical role in cataplerosis (the export of mitochondrial intermediates into the cytosol and in the induction of fatty acid-derived signaling molecules) and glucose-regulated insulin release [Flamez, D. et al., Diabetes 51, 2018-2024 (2002)]. Because citrate was not quantified in plasma or liver, it is hard to pinpoint the actual biochemical context for the change in this metabolite. […]

[3] = tested on: inflammation associated with obesity and diabetes; assay: Apparent inflammation observed in the study under rosiglitazone treatment; conditions: observed in this study and also reported in the literature
Description: Serum IL-8 at baseline was higher in responders than non-responders (p=0.032) (FIG. 4C). IL-8 is an important cytokine in the inflammatory process. It is stimulated by high glucose concentrations in endothelial cells in vitro and has chemotactic activity for polymorphonuclear neutrophils (playing an important role in the pathogenesis of chronic complications of diabetes), as well as for T-lymphocyte and smooth muscle cells. Serum IL-8 level was reported to markedly increase in diabetic patients [Zozulinska, D., et al., Diabetologia 42, 117-118 (1999)]. […] Thus, it seems consistent that subjects with higher IL-8 levels were more responsive to rosiglitazone treatment.

| SMILES | Fractions of responders in each treatment after eight weeks of treatment [1] | change in level of urine citrate after 8 week treatment, non-responder subjects ([2]; non-responders (n=12)) | change in level of urine citrate after 8 week treatment, responder group ([2]; responders (n=9)) | effect of treatment on apparent inflammation [3] |
| --- | --- | --- | --- | --- |
| CN(C)C(=N)N=C(N)N [Metformin] | 0.53 | – | – | – |
| COc1ccc(Cl)cc1C(=O)NCCc1ccc(S(=O)(=O)NC(=O)NC2CCCCC2)cc1 [Glyburide, 5-chloro-N-[2-[4-(cyclohexylcarbamoylsulfamoyl)phenyl]ethyl]-2-methoxy-benzamide] | 0.60 | – | – | – |
| CN(CCOc1ccc(CC2SC(=O)NC2=O)cc1)c1ccccn1 (stereo not drawn) [Rosiglitazone, 5-[[4-[2-(methyl-pyridin-2-yl-amino)ethoxy]phenyl]methyl]thiazolidine-2,4-dione] | 0.43 | did not change | did increase urine citrate (not statistically significant) | reduce apparent inflammation |
